# Results taken from patent US8980575B2, “Process to avoid inhibition of acetogens by CO” (Ineos Bio SA, priority 2012, dated 2015).
# How the values were obtained:
# Clostridium ljungdahlii [1] = assay: Inhibitory CO feed rates, four stage protocol (Example 6); assay type: cell-based; conditions: for CRT Average (cell retention time): from 18 hours after beginning to end of stage
# Description: Clostridium ljungdahlii was grown in a bioreactor (New Brunswick BioFlo I or IIc).
# To achieve a conductivity of 9 mS/cm, a medium was made using 1.5× of all components except for vitamins. A four stage protocol was used as follows:
# Stage 1: A culture was grown up in a 2 L bioreactor using syngas. With a cell density of 2.9 g/L, the gas source was switched from syngas mixture to a CO/N2 mixture containing 95% CO and 5% N2.
# Stage 2: At T=26 hrs, a CO conversion target was set at >90%.
# Stage 3: At T=70 hrs, the CO conversion target was decreased from 90% to 85%.
# Stage 4: At T=97 hrs, the CO conversion target was decreased from 85% to 80%.
# Dissolved CO was calculated for each gas sample using representative KLa values for a particular gas flow rate. These values were then averaged to find a representative value for each stage. Pictures were taken throughout the experiment in order to qualitatively study the morphology change over time.
# Average cell retention time (CRT) was calculated for the period of 18 hours after the beginning of each stage to the end of each stage.
# [2] = at 38° C.; cited from earlier work
# Clostridium ljungdahlii [3] = assay: Effect of CO concentration on growth, bioreactor runs (Example 7); assay type: cell-based; conditions: for bacterial cell density over time: inoculum 3.8 g/L
# Description: Clostridium ljungdahlii was grown in a bioreactor (New Brunswick BioFlo I or IIc). The following adjustments were made:
# Conductivity of the culture was adjusted by adjusting the strength of the growth medium, for example concentration of all the components, except vitamin in the growth medium was increased by 1.5 times to increase the conductivity of the culture from approximately 7 mS to approximately 9.5 mS. […]
# Initial gas flow rate of each experiment was kept unchanged throughout the experiment. Reactor parameters, when CO conversion values reach a plateau after a successful start-up, were used to calculate KLa for relevant conditions.
# Syngas composition was 30% CO, 15% H2, 10% CO2 and 45% N2.
# [4] = test system: Butyribacterium methylotrophicum; assay: Fermentation with low CO feed-gas (Example 4); assay type: cell-based; conditions: 9.5% CO/90.5% N2 feed gas, 534 ml/min; inoculum 0.86 g/l; within 44.4 hours after inoculation
# Description: (§1) New Brunswick and CelliGen 310 reactor containing modified 1× ethanol medium was inoculated with 0.86 g/l of actively growing (in 5% CO/95% N2) Butyribacterium methylotrophicum. At the start of the experiment the rate of agitation of the reactor was set to 800 rpm. Gas and liquid samples taken from the reactor at every 1 to 4 hour intervals were analyzed for consumption or production of various gas components, broth acetic acid concentration, broth ethanol concentration and the optical density of the culture. Also the composition of the feed-gas was measured daily and the flow to the reactor was measured real time by the mass flow controller regulating feed-gas to the reactor.
# (§2) A CO composition feed gas of 9.5% CO/90.5% N2 was utilized and the flow was set to 534 ml/min. All through out the experiment the rate of feed gas to the reactor was not adjusted.
# This method was utilized to keep the dissolved CO in the culture broth below 0.12 mmol/l at around 37 to 38° C. According to the Henry's law the maximum dissolved CO concentration that can be obtained by feeding a gas containing 9.5% is 0.079 mmol.
# (§3) A Shimadzu GC-2014 gas chromatograph was used to measure the broth ethanol and acetic acid concentrations. SRI 8610c gas chromatograph was used to measure the components of the feed-gas.
# Clostridium ljungdahlii [5] = assay: Fermentation with high CO feed-gas, head-space CO partial pressure control (Example 1); assay type: cell-based; conditions: 95% CO/5% N2 feed gas, head-space CO controlled; inoculum 1.28 g/l; within 41.4 hours after inoculation
# Description: as §1, with “310 bioreactors” for “310 reactor”, “medium were” for “medium was”, “with 1.28” for “with 0.86”, “(in syngas) Clostridium ljungdahlii. Before inoculation,” for “(in 5% CO/95% N2) Butyribacterium methylotrophicum. At the start of the experiment”, “reactor. High CO composition feed gas of 95% CO/5% N2 was utilized.” for “reactor.”
# The following method was used to regulate rate of gas supply to the reactor: X=(head space CO %/100)×(measured reactor pressure(psig)+atmospheric pressure/atmospheric pressure(14.7))
# if x is 0.08 or below gas flow to the reactor was increased by 7.6% of the current mole value of gas flow rate to the reactor
# if X is 0.12 or higher gas flow to the reactor was decreased by 7.6% of the current mole value of gas flow rate to the reactor
# as §3
# [6] = test system: Butyribacterium methylotrophicum; assay: Fermentation with high CO feed-gas, head-space CO partial pressure control (Example 2); assay type: cell-based; conditions: 95% CO/5% N2 feed gas, head-space CO controlled; inoculum 0.92 g/l; within 68 hours after inoculation
# Description: as §1, with “medium were” for “medium was”, “with 0.92” for “with 0.86”, “(in syngas)” for “(in 5% CO/95% N2)”, “methylotrophicum. Before inoculation,” for “methylotrophicum. At the start of the experiment”, “reactor. High CO composition feed gas of 95% CO/5% N2 was utilized.” for “reactor.”
# The method described in Example 1 was used to regulate the rate of gas supply to the reactor.
# as §3
# [7] = Dissolved CO by Henry's law calculation; assay type: physicochemical; conditions: feeding a gas containing 9.5% CO, 37 to 38° C.
# Description: In order to calculate dissolved CO, the mass transfer coefficient (KLa) of the system needs to be determined. KLa value will depend on various factors, such as architecture of the reactor, superficial gas flow rate, un-aroused volume, temperature and agitation power. Therefore KLa values vary from reactor conditions to condition.
# Henry's law:P=KHC • Henry's constant=KH=p/c (L(psi)/mol) • at 38° C., KH=17640 (L(psi)/mol)
# In a CSTR containing CO consuming bacteria, the following equation may be used to estimate dissolved CO. • KLa((PCO(head space)/KH)−(PCO(liquid)/KH))=COU • COU=carbon monoxide uptake (mol/L/min) • KLa=mass transfer coefficient (min^−1) • (PCO(liquid)/KH)=dissolved CO (mol/L)
# When dissolved CO=0 • KLa=COU/(PCO(head space)/KH) • KLa((PCO(head space)/KH)−(PCO(liquid)/KH))=COU • KH=L(psi)/mol
# Clostridium ljungdahlii [8] = assay: Fermentation with low CO feed-gas (Example 3); assay type: cell-based; conditions: 9.5% CO/90.5% N2 feed gas, 534 ml/min; inoculum 0.38 g/l; within 90.6 hours after inoculation
# Description: New Brunswick and CelliGen 310 reactor containing modified 1× ethanol medium were inoculated with 0.38 g/l of actively growing (in syngas) Clostridium ljungdahlii. Before inoculation, the rate of agitation of the reactor was set to 800 rpm. Gas and liquid samples taken from the reactor at every 1 to 4 hour intervals were analyzed for consumption or production of various gas components, broth acetic acid concentration, broth ethanol concentration and the optical density of the culture. Also the composition of the feed-gas was measured daily and the flow to the reactor was measured in real time by the mass flow controller regulating feed-gas to the reactor.
# as §2
# The method was utilized to keep the dissolved CO in the culture broth below 0.12 mmol/L at around 37 to 38° C. According to the Henry's Law, the maximum dissolved CO concentration that can be obtained by feeding a gas containing 9.5% is 0.079 mmol.
# as §3
# Clostridium ljungdahlii [9] = assay: Effect of CO feed rates on CO conversion (Example 5); assay type: cell-based
# Description: Clostridium ljungdahlii was grown and maintained using only CO and N2 (feed gas) in a bioreactor (New Brunswick BioFlo I or IIc). During the experiment, rate of feed gas was altered to obtain desired culture conversions. Lower culture conversions were employed to provide excess dissolved CO to Clostridium ljungdahlii.
# Low culture conversions of CO was used as s method to provide excess dissolved CO to the culture. For example, when a culture in a reactor can convert X amount of CO at a given agitation and at a given flow rate, the dissolved CO can be increased by increasing the flow rate so that culture conversions go below X.
# [10] = Stage 2, average dissolved CO 0.04 mmol
# [11] = Stage 3, average dissolved CO 0.12 mmol
# [12] = Stage 4, average dissolved CO 0.29 mmol
# [13] = Run #2: 1× growth medium, 35 ml/min syngas
# [14] = Run #3: 1× growth medium, 40 ml/min syngas
# [15] = Run #4: 1× growth medium, 45 ml/min syngas
# [16] = Run #10: 1.5× growth medium, 20 ml/min syngas
smiles,measurement,setting,value
"[C-]#[O+] [CO, carbon monoxide]",SCU Average (specific CO uptake),Clostridium ljungdahlii [1]; [10],0.581 mmol/g/min
same,CRT Average (cell retention time),Clostridium ljungdahlii [1]; [10],23.74 h
same,SCU Average (specific CO uptake),Clostridium ljungdahlii [1]; [11],0.559 mmol/g/min
same,CRT Average (cell retention time),Clostridium ljungdahlii [1]; [11],31.89 h
same,SCU Average (specific CO uptake),Clostridium ljungdahlii [1]; [12],0.360 mmol/g/min
same,CRT Average (cell retention time),Clostridium ljungdahlii [1]; [12],75.92 h
same,dissolved CO at which specific CO uptake proceeded on a downward trend,"Clostridium ljungdahlii [1]; Stage 4, conversions coming down to 80%",around 0.2 mmol
same,Henry's constant KH,[2],17640 L(psi)/mol
same,doubling time,"Clostridium ljungdahlii [3]; Run #1: 1× growth medium, 25 ml/min syngas",about 20 hours
same,initial lag period,"Clostridium ljungdahlii [3]; Run #1: 1× growth medium, 25 ml/min syngas (30% CO)",about 20 hours
same,doubling time,Clostridium ljungdahlii [3]; [13],about 20 hours
same,initial lag period,Clostridium ljungdahlii [3]; [13],about 36 hours
same,cell morphology,"Clostridium ljungdahlii [3]; Run #2: 35 ml/min syngas, at about 51 hours after inoculation",elongated and curved
same,doubling time,Clostridium ljungdahlii [3]; [14],about 20 hours
same,initial lag period,Clostridium ljungdahlii [3]; [14],about 45 hours
same,cell morphology,"Clostridium ljungdahlii [3]; Run #3: 40 ml/min syngas, at about 51 hours after inoculation",elongated and curved
same,doubling time,Clostridium ljungdahlii [3]; [15],about 20 hours
same,initial lag period,Clostridium ljungdahlii [3]; [15],about 50 hours
same,cell morphology,"Clostridium ljungdahlii [3]; Run #4: 45 ml/min syngas, at about 55 hours after inoculation",elongated and curved
same,lag period (culture continued to lag),"Clostridium ljungdahlii [3]; Run #5: 1× growth medium, 50 ml/min syngas",> 70 h
same,doubling time,"Clostridium ljungdahlii [3]; Run #6: 1× growth medium, 50 ml/min syngas, higher inoculum",about 20 hours
same,initial lag period,"Clostridium ljungdahlii [3]; Run #6: 1× growth medium, 50 ml/min syngas, higher inoculum (4.8 vs 3.8 g/L cells)",about 10 hours
same,cell morphology,"Clostridium ljungdahlii [3]; Run #6: 50 ml/min syngas, higher inoculum, at about 20 hours after inoculation",short and consistent in nature
same,bacterial cell density over time,"Clostridium ljungdahlii [3]; Run #7: 1.5× growth medium, 45 ml/min syngas",went down with time
same,bacterial cell density over time,"Clostridium ljungdahlii [3]; Run #8: 1.5× growth medium, 35 ml/min syngas",went down with time
same,bacterial cell density over time,"Clostridium ljungdahlii [3]; Run #9: 1.5× growth medium, 30 ml/min syngas",went down with time
same,doubling time,Clostridium ljungdahlii [3]; [16],20 h
same,bacterial cell density over time,Clostridium ljungdahlii [3]; [16],went up with time
same,cell mass,[4],3.32 g/L
same,cell mass,Clostridium ljungdahlii [5],8.24 g/L
same,cell mass,[6],7.88 g/L
same,maximum dissolved CO concentration according to Henry's Law,[7],0.079 mmol
same,cell mass,Clostridium ljungdahlii [8],6.21 g/L
same,"ethanol production, cell mass and morphology after recovery",Clostridium ljungdahlii [9]; CO conversions returned to approximately 80%,returned to healthy culture levels
same,"signs of inhibition (ethanol and acetic acid production, SCU, cell mass, cell morphology)",Clostridium ljungdahlii [9]; at approximately 80% CO conversions,didn't show signs of inhibition
same,inhibition of culture,Clostridium ljungdahlii [9]; feed gas increased to maintain CO conversions below approximately 70%,inhibited
